Species on record: Rattus norvegicus
Assay: Open TG-GATES - Regimen: Single
Format: toxicity, organism-based, Sprague-Dawley
Design: regimen Single, gender Male, age 6 weeks
Details: in vivo, po, 2 mg/kg, route gavage, dose level Low; for APTT / Bas / Eos / Fbg / Hb / Lym / MCH / MCHC / MCV / Mono / Neu / PT / Plat / RBC / Ret / WBC: tissue Blood; for KIDNEY_L / KIDNEY_R / KIDNEY_TOTAL: tissue Kidney; for LIVER: tissue Liver; for ALP / ALT / AST / BUN / CRE / Ca / Cl / DBIL / GLC / IP / K / LDH / Na / PL / RALB / TBIL / TC / TG / TP / gamma-GTP: tissue Plasma

Work on `OCCN1CCN(CCCN2c3ccccc3Sc3ccc(C(F)(F)F)cc32)CC1` [FLUPHENAZINE] yielded a TERMINAL_BW (3 h) of 193.4 g, an APTT (3 h) of 16.5 s and a Bas (3 h) of 0%. For the same compound, the Eos (3 h) was 0.8%, the Fbg (3 h) was 231.2 mg/dL and the Hb (3 h) was 13.2 g/dL. The Lym (3 h) was 76.6%, the MCH (3 h) was 21.9 pg and the MCHC (3 h) was 33.2%. The MCV (3 h) was 65.9 fL, the Mono (3 h) was 8.2% and the Neu (3 h) was 14.6%. For the same compound, the PT (3 h) was 12.5 s, the Plat (3 h) was 111 x10_4/uL and the RBC (3 h) was 605.2 x10_4/ul. For the same compound, the Ret (3 h) was 7.9%, the WBC (3 h) was 105.8 x10_2/uL and the KIDNEY_L (3 h) was 0.9 g. It also gave a KIDNEY_R (3 h) of 0.9 g, a KIDNEY_TOTAL (3 h) of 1.8 g and an LIVER (3 h) of 8.9 g. It also gave an ALP (3 h) of 678.4 IU/L, an ALT (3 h) of 29.6 IU/L and an AST (3 h) of 56.4 IU/L. It also gave a BUN (3 h) of 10.8 mg/dL, a CRE (3 h) of 0.5 mg/dL and a Ca (3 h) of 10.5 mg/dL. It also gave a Cl (3 h) of 105.2 meq/L, a DBIL (3 h) of 0.012 mg/dL and a GLC (3 h) of 193.4 mg/dL. It also gave an IP (3 h) of 10.4 mg/dL, a K (3 h) of 4.8 meq/L and an LDH (3 h) of 84 IU/L. For the same compound, the Na (3 h) was 137.8 meq/L, the PL (3 h) was 148 mg/dL and the RALB (3 h) was 3.9 g/dL. It also gave a TBIL (3 h) of 0.3 mg/dL, a TC (3 h) of 88.8 mg/dL and a TG (3 h) of 40 mg/dL. For the same compound, the TP (3 h) was 5.6 g/dL, the gamma-GTP (3 h) was 2.4 IU/L and the TERMINAL_BW (6 h) was 197 g. The APTT (6 h) was 16.5 s, the Bas (6 h) was 0% and the Eos (6 h) was 0.8%. It also gave a Fbg (6 h) of 220.8 mg/dL, a Hb (6 h) of 13 g/dL and a Lym (6 h) of 75.4%. It also gave an MCH (6 h) of 21.5 pg, an MCHC (6 h) of 33% and an MCV (6 h) of 65.3 fL. The Mono (6 h) was 8.6%, the Neu (6 h) was 15.6% and the PT (6 h) was 12.4 s. It also gave a Plat (6 h) of 113.3 x10_4/uL, an RBC (6 h) of 606.4 x10_4/ul and a Ret (6 h) of 8.7%. The WBC (6 h) was 86.8 x10_2/uL, the KIDNEY_L (6 h) was 0.9 g and the KIDNEY_R (6 h) was 0.9 g. For the same compound, the KIDNEY_TOTAL (6 h) was 1.8 g, the LIVER (6 h) was 8.5 g and the ALP (6 h) was 708.4 IU/L. The ALT (6 h) was 32.4 IU/L, the AST (6 h) was 57.2 IU/L and the BUN (6 h) was 10.2 mg/dL. For the same compound, the CRE (6 h) was 0.5 mg/dL, the Ca (6 h) was 10.2 mg/dL and the Cl (6 h) was 105.8 meq/L. It also gave a DBIL (6 h) of 0.002 mg/dL, a GLC (6 h) of 184.2 mg/dL and an IP (6 h) of 10.2 mg/dL. The K (6 h) was 4.8 meq/L, the LDH (6 h) was 84.8 IU/L and the Na (6 h) was 136.8 meq/L. For the same compound, the PL (6 h) was 150.6 mg/dL, the RALB (6 h) was 3.7 g/dL and the TBIL (6 h) was 0.4 mg/dL. The TC (6 h) was 92.4 mg/dL, the TG (6 h) was 33.6 mg/dL and the TP (6 h) was 5.3 g/dL. It also gave a gamma-GTP (6 h) of 2.2 IU/L, a TERMINAL_BW (9 h) of 192.1 g and an APTT (9 h) of 16.7 s. It also gave a Bas (9 h) of 0%, an Eos (9 h) of 0.6% and a Fbg (9 h) of 223 mg/dL. The Hb (9 h) was 13.1 g/dL, the Lym (9 h) was 74.2% and the MCH (9 h) was 21.6 pg. The MCHC (9 h) was 33%, the MCV (9 h) was 65.5 fL and the Mono (9 h) was 6.6%. It also gave a Neu (9 h) of 19%, a PT (9 h) of 12.3 s and a Plat (9 h) of 113.3 x10_4/uL. For the same compound, the RBC (9 h) was 609.2 x10_4/ul, the Ret (9 h) was 7.9% and the WBC (9 h) was 62.2 x10_2/uL. The KIDNEY_L (9 h) was 0.9 g, the KIDNEY_R (9 h) was 0.9 g and the KIDNEY_TOTAL (9 h) was 1.8 g. It also gave an LIVER (9 h) of 8.1 g, an ALP (9 h) of 829.8 IU/L and an ALT (9 h) of 27.4 IU/L. It also gave an AST (9 h) of 54.4 IU/L, a BUN (9 h) of 9 mg/dL and a CRE (9 h) of 0.5 mg/dL. The Ca (9 h) was 9.9 mg/dL, the Cl (9 h) was 104.4 meq/L and the DBIL (9 h) was 0.022 mg/dL. The GLC (9 h) was 176.8 mg/dL, the IP (9 h) was 10 mg/dL and the K (9 h) was 4.5 meq/L. The LDH (9 h) was 81.6 IU/L, the Na (9 h) was 137.2 meq/L and the PL (9 h) was 135.4 mg/dL. It also gave an RALB (9 h) of 3.6 g/dL, a TBIL (9 h) of 0.3 mg/dL and a TC (9 h) of 79.4 mg/dL. It also gave a TG (9 h) of 33.2 mg/dL, a TP (9 h) of 5.3 g/dL and a gamma-GTP (9 h) of 2.2 IU/L. It also gave a TERMINAL_BW (24 h) of 213 g, an APTT (24 h) of 17 s and a Bas (24 h) of 0%. For the same compound, the Eos (24 h) was 0.8%, the Fbg (24 h) was 209.8 mg/dL and the Hb (24 h) was 13.1 g/dL. It also gave a Lym (24 h) of 86.2%, an MCH (24 h) of 21.7 pg and an MCHC (24 h) of 33.2%. The MCV (24 h) was 65.4 fL, the Mono (24 h) was 4% and the Neu (24 h) was 9.2%. The PT (24 h) was 12.2 s, the Plat (24 h) was 117 x10_4/uL and the RBC (24 h) was 605.6 x10_4/ul. The Ret (24 h) was 7.7%, the WBC (24 h) was 112.3 x10_2/uL and the KIDNEY_L (24 h) was 0.9 g. It also gave a KIDNEY_R (24 h) of 0.9 g, a KIDNEY_TOTAL (24 h) of 1.9 g and an LIVER (24 h) of 10.8 g. It also gave an ALP (24 h) of 934.6 IU/L, an ALT (24 h) of 32.6 IU/L and an AST (24 h) of 56.6 IU/L. It also gave a BUN (24 h) of 22.2 mg/dL, a CRE (24 h) of 0.5 mg/dL and a Ca (24 h) of 11 mg/dL. It also gave a Cl (24 h) of 104.2 meq/L, a DBIL (24 h) of 0.014 mg/dL and a GLC (24 h) of 178.8 mg/dL. The IP (24 h) was 7.5 mg/dL, the K (24 h) was 5.1 meq/L and the LDH (24 h) was 92.8 IU/L. The Na (24 h) was 136.6 meq/L, the PL (24 h) was 166.6 mg/dL and the RALB (24 h) was 4.1 g/dL. For the same compound, the TBIL (24 h) was 0.3 mg/dL, the TC (24 h) was 82.6 mg/dL and the TG (24 h) was 139.2 mg/dL. For the same compound, the TP (24 h) was 6 g/dL and the gamma-GTP (24 h) was 1.6 IU/L.
